B1: Nicotiana tabacum DRM methyltransferase domain (NtDRM MTase, residues 255-608) (domain or fragment, UniProt Q76KU6 255-608, looked up)
chain: ETIRLPKPMIGFGVPTEPLPAMVRRTLPEQAVGPPFFYYENVALAPKGVWDTISRFLYDIEPEFVDSKYFCAAARKRGYIHNLPVENRFPLFPLAPRTIHEALPLSKKWWPSWDPRTKLNCLQTAIGSAQLTNRIRKAVEDFDGEPPMRVQKFVLDQCRKWNLVWVGRNKVAPLEPDEVEMLLGFPKNHTRGGGISRTDRYKSLGNSFQVDTVAYHLSVLKDLFPGGINVLSLFSGIGGGEVALYRLGIPLNTVVSVEKSEVNRDIVRSWWEQTNQRGNLIHFNDVQQLNGDRLEQLIESFGGFDLVIGGSPCNNLAGSNRVSRDGLEGKESSLFYDYVRILDLVKSIMSRHKH

How the values were obtained:
NtDRM MTase = target: T1, NtDRM MTase (Nicotiana tabacum, UniProt Q76KU6); experiment: X-ray crystal structure, […] A; format: binding; details: cofactor site; co-crystallised at protein:sinefungin molar ratio 1:3
T1 sequence (Q76KU6 255-608): B1 chain

crystal structure = target: the molecule itself; experiment: crystal structure

Molecule	X-ray crystal structure, 2.8 A (NtDRM MTase)	stoichiometry N (crystal structure)
Nc1ncnc2c1ncn2[C@@H]1O[C@H](C[C@@H](N)CC[C@H](N)C(=O)O)[C@@H](O)[C@H]1O [sinefungin]	NtDRM MTase dimer with each molecule bound to a cofactor analog sinefungin in the active site	
B1		2

Reference: article PMC4123750 (Cell, 2014)
